In patent publication US11939402B2, “Antifungal peptides, compounds including the same, and methods of use thereof” (priority 2022, dated 2024):
In brackets after ≈: the same amount, converted by molar mass. Where a SMILES comes first, the peptide text is derived from it. The star is where a group is joined. Palmitoyl = CCCCCCCCCCCCCCCC(=O)*; Myristoyl = CCCCCCCCCCCCCC(=O)*; Decanoyl = CCCCCCCCCC(=O)*; Hexanoyl = CCCCCC(=O)*

Tests used:
[1] = tested on: C. neoformans cdc50Δ mutant strain; type: cell-based, Cryptococcus neoformans; conditions: alone
Description: (§1) The assays followed standard CLSI protocol for broth microdilution assays using yeasts.(32) Microbes were passaged in YPD media at 37° C. with mixing for 2 days before harvesting with an inoculation loop to prepare monocultures on Sabouraud Dextrose Agar (SDA) plates. Monocultures on SDA plates were incubated for 2 days at 37° C. before harvesting cells for microdilution assays. RPMI media (100 μL) was charged to each of the 96 wells in a 96 well plate, with an additional 100 μL in the first column. Peptide-DMSO solution (4 μL) at 12.8 mg/mL was charged to each of the wells in the first column. The 100 μL was serially diluted by a factor of 2 from the first column to the 11th column. Microbe inoculant was then prepared. An inoculation loop was used to transfer 1-3 colonies of cells to 1 mL phosphate buffer solution (PBS). The PBS and microbe solution was made uniform by vortex mixing. Cell concentration was computed by comparing the absorbance at 530 nm to 1× McFarland standard solution and multiplying the resulting ratio by 10^7 cell/mL conversion factor. Plate inoculant was prepared by diluting the PBS microbe solution to 5000 cell/mL, in RPMI media. A 100 μL aliquot of cells was transferred to each of the wells on the plate other than column 11 for the no growth control. The operating volume was 200 μL, with 500 CFU per well for a final concentration of 2.5*10^3 cells/mL.

[2] = tested on: C. neoformans wild type strain H99; experiment: microbe, parasite or virus in culture; type: cell-based, Cryptococcus neoformans; conditions: for MIC ug/mL H99: wild-type H99, read at 24 and 48 hours, 37° C.; for MIC ug/mL H99 / MIC: alone; for MIC: against C. neoformans H99 wild type
Description: as §1, with “Peptide-DMSO solution (4 μL) at 12.8 mg/mL was charged to each of the wells in the first column.” left out

[3] = tested on: C. neoformans cdc50Δ mutant strain; type: cell-based, Cryptococcus neoformans; conditions: for FIC ug/mL ΔCDC50 Peptide: concentration of the peptide in combination with caspofungin; for FIC Index ΔCDC50: peptide with caspofungin, ΔCDC50 (table S1)
Description: The Fractional Inhibitory Concentration Index were calculated as follows: […]

[4] = tested on: C. neoformans wild type strain H99; conditions: for FIC ug/mL H99 Peptide: concentration of the peptide in combination with caspofungin
Description: Microbes were prepared in the same manner as the MIC assay. […] 100 μL of RPMI media was added to the first 8 wells in the first row. […] The 100 μL of media with drug was serially diluted from the first row to the final row. […] Column 11 was the no growth control, and 12 was the no drug control. The plate was inoculated with microbes in the same manner as the MIC assay. Again, 200 uL was the operating volume, 500 CFU per well, 2.5*10^3 cell/mL. Plates were incubated for 48 hours at 37° C. and read thereafter. The Fractional Inhibitory Concentration Index were calculated as follows:
Where the MICA and MICB are the MIC values of drugs A and B alone and FICA and FICB are the Fractional Inhibitory concentrations of drugs A and B in the presence of each other, respectively.

C. neoformans cells = experiment: AF350-Annexin V / propidium iodine flow cytometry assay (exofacial phosphatidylserine); type: cell-based, Cryptococcus neoformans; conditions: 0.128 mg/mL peptide, 20 minutes at 25° C.; control 0.2±0.1%
Description: Stock microbes were defrosted from the −80° C. freezer and were passed twice for 48 hours each in YPD media. The YPD media was removed by spinning down and the supernatant was decanted. Pelletized cells were resuspended in 1 mL PBS media and washed for 5 minutes with incubation at 25° C. and 250 RPM. Washed cells were spun down again and suspended in 1 mL of PBS solution. cells were diluted 20-fold into 1 mL fungal working solution in an eppendorf. Cell concentration was quantified via comparison to 1× McFarlain's standard on a plate reader using the absorbance value at 530 nm. An aliquot of 1*10^6 cells in 100 μL was created (1*10^7 cell/mL). […] The cells were incubated for 20 minutes at 25° C. and 250 RPM. Baseline and experimental samples were prepared in triplicate. Cells were stained using an operating concentration of 0.001 mg/mL Propidium Iodine (PI) and a 40-fold dilution of AlexaFluor 350 labelled annexin V as per manufactures instructions. After staining the cells, samples were spun down and supernatant decanted. Cells were then fixed in 4% formaldehyde for 5 minutes. Fixed cells were spun down and supernatant decanted and resuspended in 400 μL 1% formaldehyde for flowcytometry. Samples were collected at a slow flow rate on a MACS Quant 10 device (Miltenyi Biotech, Auburn, CA) with 20,000 events collected per injection.
It was sought to determine whether the activities of the peptides were related to the lipid-flipping activity of the P4-ATPase. […] The intensity of the AF350-annexin V signal corresponds to concentration of PS on the exofacial side of the membrane. The propidium iodine signal corresponds to cell viability.
Single cells were first selected and gated based on morphology to ensure homogeneity among the cell population (4A, 4B). Cells with low propidium iodine intensity (PI-A<9 RU) and high AF350-annexin V intensity (Annexin V-A>9 RU) (4C, 4D) were examined. Under these gating parameters there should be, respectively, low non-specific cell death and high exofacial PS.

Compound | MIC ug/mL ΔCDC50 [1] | MIC ug/mL H99 [2] | FIC ug/mL ΔCDC50 Peptide [3] | FIC Index ΔCDC50 [3] | FIC ug/mL H99 Peptide ([4]; H99) | further results
H-YVDGFPNLREDEHFQ-OH [QY15] | >128 µg/mL | >128 µg/mL | 0.5 µg/mL | 0.5-1 | 0.5 µg/mL | –
Ac-SESGIAWGGIKKNYA-OH [AS15-Aa] | >128 µg/mL | >128 µg/mL | – | – | – | –
CCCCCCCCCCCCCC(=O)N[C@@H](Cc1c[nH]c2ccccc12)C(=O)NCC(=O)NCC(=O)N[C@H](C(=O)N[C@@H](C)C(=O)N[C@@H](C)C(=O)N[C@@H](CC(N)=O)C(=O)N[C@@H](Cc1ccc(O)cc1)C(=O)N[C@@H](C)C(=O)O)[C@@H](C)CC [K5A;K6A-Ma] (Myristoyl-WGGIAANYA-OH) | – | – | – | – | – | MIC [2]: >128 µg/mL; percentage of cells with low propidium iodine intensity (PI-A<9 RU) and high AF350-annexin V intensity (Annexin V-A>9 RU) (C. neoformans cells): 1.3±0.9%
CCCCCCCCCCCCCC(=O)N[C@@H](Cc1c[nH]c2ccccc12)C(=O)NCC(=O)NCC(=O)N[C@H](C(=O)N[C@@H](C)C(=O)N[C@@H](CCCCN)C(=O)N[C@@H](CC(N)=O)C(=O)N[C@@H](Cc1ccc(O)cc1)C(=O)N[C@@H](C)C(=O)O)[C@@H](C)CC [Peptide K5A-Ma] (Myristoyl-WGGIAKNYA-OH) | – | – | – | – | – | MIC [2]: >128 µg/mL; percentage of cells with low propidium iodine intensity (PI-A<9 RU) and high AF350-annexin V intensity (Annexin V-A>9 RU) (C. neoformans cells): 5.6±0.1%
CCCCCCCCCC(=O)N[C@@H](CO)C(=O)N[C@@H](CCC(=O)O)C(=O)N[C@@H](CO)C(=O)NCC(=O)N[C@H](C(=O)N[C@@H](C)C(=O)N[C@@H](Cc1c[nH]c2ccccc12)C(=O)NCC(=O)NCC(=O)N[C@H](C(=O)N[C@@H](CCCCN)C(=O)N[C@@H](CCCCN)C(=O)N[C@@H](CC(N)=O)C(=O)N[C@@H](Cc1ccc(O)cc1)C(=O)N[C@@H](C)C(=O)O)[C@@H](C)CC)[C@@H](C)CC [AS15-Da] (Decanoyl-SESGIAWGGIKKNYA-OH) | >128 µg/mL | >128 µg/mL | – | – | – | –
CCCCCCCCCCCCCC(=O)N[C@@H](CO)C(=O)NCC(=O)N[C@H](C(=O)N[C@@H](C)C(=O)N[C@@H](Cc1c[nH]c2ccccc12)C(=O)NCC(=O)NCC(=O)N[C@H](C(=O)N[C@@H](CCCCN)C(=O)O)[C@@H](C)CC)[C@@H](C)CC [KS9-Ma] (Myristoyl-SGIAWGGIK-OH) | >128 µg/mL | >128 µg/mL | – | – | – | –
CCCCCCCCCCCCCC(=O)N[C@@H](CO)C(=O)N[C@@H](CCC(=O)O)C(=O)N[C@@H](CO)C(=O)NCC(=O)N[C@H](C(=O)N[C@@H](C)C(=O)N[C@@H](Cc1c[nH]c2ccccc12)C(=O)NCC(=O)NCC(=O)N[C@H](C(=O)N[C@@H](CCCCN)C(=O)N[C@@H](CCCCN)C(=O)N[C@@H](CC(N)=O)C(=O)N[C@@H](Cc1ccc(O)cc1)C(=O)N[C@@H](C)C(=O)O)[C@@H](C)CC)[C@@H](C)CC [AS15-Ma] (Myristoyl-SESGIAWGGIKKNYA-OH) | 8 µg/mL (≈ 4.47 µM) | >128 µg/mL | 0.25 µg/mL | 0.094 | 0.5 µg/mL | percentage of cells with low propidium iodine intensity (PI-A<9 RU) and high AF350-annexin V intensity (Annexin V-A>9 RU) (C. neoformans cells): 12.1±2.0%; MIC of caspofungin in the presence of peptide ([4]; 0.5 μg/mL peptide, H99, caspofungin alone 16 μg/mL): 8 µg/mL; FIC Index H99 ([4]; peptide with caspofungin, H99 (table S1)): 0.5-1
CCCCCC(=O)N[C@@H](CO)C(=O)N[C@@H](CCC(=O)O)C(=O)N[C@@H](CO)C(=O)NCC(=O)N[C@H](C(=O)N[C@@H](C)C(=O)N[C@@H](Cc1c[nH]c2ccccc12)C(=O)NCC(=O)NCC(=O)N[C@H](C(=O)N[C@@H](CCCCN)C(=O)N[C@@H](CCCCN)C(=O)N[C@@H](CC(N)=O)C(=O)N[C@@H](Cc1ccc(O)cc1)C(=O)N[C@@H](C)C(=O)O)[C@@H](C)CC)[C@@H](C)CC [AS15-Ha] (Hexanoyl-SESGIAWGGIKKNYA-OH) | >128 µg/mL | >128 µg/mL | – | – | – | –
H-SESGIAWGGIKKNYA-OH [AS15] | 128 µg/mL | >128 µg/mL | 0.5 µg/mL | 0.25 | 0.5 µg/mL | growth in MIC plate wells compared to the no drug control ([2]; visual inspection of the MIC plates, H99): stronger and more confluent growth
CCCCCCCCCCCCCCCC(=O)N[C@@H](Cc1c[nH]c2ccccc12)C(=O)NCC(=O)NCC(=O)N[C@H](C(=O)N[C@@H](CCCCN)C(=O)N[C@@H](CCCCN)C(=O)N[C@@H](CC(N)=O)C(=O)N[C@@H](Cc1ccc(O)cc1)C(=O)N[C@@H](C)C(=O)O)[C@@H](C)CC [AW9-Pa] (Palmitoyl-WGGIKKNYA-OH) | – | – | 1 µg/mL | – | 0.5 µg/mL | –
CCCCCCCCCCCCCCCC(=O)N[C@@H](CO)C(=O)N[C@@H](CCC(=O)O)C(=O)N[C@@H](CO)C(=O)NCC(=O)N[C@H](C(=O)N[C@@H](C)C(=O)N[C@@H](Cc1c[nH]c2ccccc12)C(=O)NCC(=O)NCC(=O)N[C@H](C(=O)N[C@@H](CCCCN)C(=O)N[C@@H](CCCCN)C(=O)N[C@@H](CC(N)=O)C(=O)N[C@@H](Cc1ccc(O)cc1)C(=O)N[C@@H](C)C(=O)O)[C@@H](C)CC)[C@@H](C)CC [AS15-Pa] (Palmitoyl-SESGIAWGGIKKNYA-OH) | 128 µg/mL (≈ 70.4 µM) | >128 µg/mL | 2 µg/mL | 0.53 | 0.5 µg/mL | –
CCCCCCCCCCCCCC(=O)N[C@@H](Cc1ccc(O)cc1)C(=O)N[C@H](C(=O)N[C@@H](CC(=O)O)C(=O)NCC(=O)N[C@@H](Cc1ccccc1)C(=O)N1CCC[C@H]1C(=O)N[C@@H](CC(N)=O)C(=O)N[C@@H](CC(C)C)C(=O)N[C@@H](CCCNC(=N)N)C(=O)N[C@@H](CCC(=O)O)C(=O)N[C@@H](CC(=O)O)C(=O)N[C@@H](CCC(=O)O)C(=O)N[C@@H](Cc1c[nH]cn1)C(=O)N[C@@H](Cc1ccccc1)C(=O)N[C@@H](CCC(N)=O)C(=O)O)C(C)C [QY15-Ma] (Myristoyl-YVDGFPNLREDEHFQ-OH) | 128 µg/mL (≈ 61.6 µM) | >128 µg/mL | 0.5 µg/mL | 0.25 | 0.5 µg/mL | –
CCCCCCCCCCCCCC(=O)N[C@@H](Cc1c[nH]c2ccccc12)C(=O)NCC(=O)NCC(=O)N[C@H](C(=O)N[C@@H](CCCCN)C(=O)N[C@@H](C)C(=O)N[C@@H](CC(N)=O)C(=O)N[C@@H](Cc1ccc(O)cc1)C(=O)N[C@@H](C)C(=O)O)[C@@H](C)CC [Peptide K6A-Ma] (Myristoyl-WGGIKANYA-OH) | – | – | – | – | – | MIC [2]: >128 µg/mL
